Patent EP1367044B1, “Calixarene-derivatives having anti-viral activity” (Aids Care Pharma Limited, priority 2002, dated 2003)

What was measured:
HIV = details: drug used on its own, patients; cited from earlier work
[1] = human, in vivo; cited from earlier work
wild-type HIV-1(111a) = assay type: cell-based; details: CEM cells, 4 days incubation at 37°C, syncytium formation
Procedure: The results shown in Table 1 for test 2 were obtained by testing cell cultures in accordance with the following procedure.
CEM cells were suspended at approximately 250,000 cells per milliliter of culture medium and infected with wild-type HIV-1(111a) at approximately 100 times the 50% cell culture infective dose (CCID50) per milliliter. Then 100µl of the infected cell suspensions were added to 200 µl microtiter plate wells containing 100 µl of an appropriate dilution of the test compounds. After 4 days incubation at 37°C the cell cultures were microscopically examined for syncytium formation.

gp120/CD4 binding = gp120/CD4 binding (UniProt P01730+P03375); assay: Test 1: inhibition of gp120/CD4 binding, recombinant proteins in an immunoassay format

Molecule	REDUCTION IN VIRAL LOAD (HIV)	SIDE EFFECTS [1]	further results
Nc1nc(NC2CC2)c2ncn([C@H]3C=C[C@@H](CO)C3)c2n1 [Abacavir]	50-90%		
CC(C)Nc1cccnc1N1CCN(C(=O)c2cc3cc(NS(C)(=O)=O)ccc3[nH]2)CC1 [Delaviridine]	50-90%		
O=c1[nH]cnc2c1ncn2[C@H]1CC[C@@H](CO)O1 [Didanosine (ddl), Didanosine]	50-90%		
O=C1Nc2ccc(Cl)cc2[C@@](C#CC2CC2)(C(F)(F)F)O1 [Efavirenz]	50-90%		
Nc1ccn([C@@H]2CS[C@H](CO)O2)c(=O)n1 [Lamivudine (3TC), Lamivudine]		gastrointestinal disturbances, hair loss, myelosuppression, exacerbation of peripheral neuropathy	
Cc1c(O)cccc1C(=O)N[C@@H](CSc1ccccc1)[C@H](O)CN1C[C@H]2CCCC[C@H]2C[C@H]1C(=O)NC(C)(C)C [Nelfinavir (Viracept), Nelfinavir]		diarrohea, nausea & vomiting	
Cc1ccnc2c1NC(=O)c1cccnc1N2C1CC1 [Nevirapine]	50-90%		
CC(C)c1nc(CN(C)C(=O)N[C@H](C(=O)N[C@@H](Cc2ccccc2)C[C@H](O)[C@H](Cc2ccccc2)NC(=O)OCc2cncs2)C(C)C)cs1 [Ritonavir]		diarrhoea nausea, vomiting, hepatitis, headache	
CC(C)(C)NC(=O)[C@@H]1C[C@@H]2CCCC[C@@H]2CN1C[C@@H](O)[C@H](Cc1ccccc1)NC(=O)[C@H](CC(N)=O)NC(=O)c1ccc2ccccc2n1 [Saquinavir]		loose stools, nausea, headache	
Cc1cn([C@H]2C=C[C@@H](CO)O2)c(=O)[nH]c1=O [Stavudine (d4T), Stavudine]	50-90%		
Nc1ccn([C@H]2CC[C@@H](CO)O2)c(=O)n1 [Zalcitabine (ddc), Zalcitabine]	50-90%		
Cc1cn([C@H]2C[C@H](N=[N+]=[N-])[C@@H](CO)O2)c(=O)[nH]c1=O [Zidovudine (AZT), Zidovudine]	50-90%	myelosupression, myopathy, nausea, headache, anaemia	
dodecapotassium acetate of p-bromopyrogallol P-F-phenyl tetramer [AC-1 (1151c)]			Test 2 EC50 (wild-type HIV-1(111a)): 4 µg/mL; % inhibition of gp120/CD4 binding (gp120/CD4 binding; Conc um 0.39): 48%; % inhibition of gp120/CD4 binding (gp120/CD4 binding; Conc um 0.78): 55%; % inhibition of gp120/CD4 binding (gp120/CD4 binding; Conc um 1.56): 62%; % inhibition of gp120/CD4 binding (gp120/CD4 binding; Conc um 3.125): 70%; % inhibition of gp120/CD4 binding (gp120/CD4 binding; Conc um 6.25): 82%; % inhibition of gp120/CD4 binding (gp120/CD4 binding; Conc um 12.5): 86%; % inhibition of gp120/CD4 binding (gp120/CD4 binding; Conc um 25): 91%; % inhibition of gp120/CD4 binding (gp120/CD4 binding; Conc um 50): 93%; % inhibition of gp120/CD4 binding (gp120/CD4 binding; Conc um 100): 96%; EC50 (gp120/CD4 binding; read-out: Test 1 EC50, concentration which reduces gp120 interaction with CD4 by 50%): 500 to 1000 nM
